Results: US6500405B1, “Use of certain amides as probes for detection of antitubulin activity and resistance monitoring” (Dow AgroSciences LLC, priority 1996, dated 2002)

What was measured:
isolated bovine tubulin = assay: Binding assay, tritiated compound 1 as probe, isolated bovine tubulin; conditions: 100 μM final concentration; 10 μM tubulin; 30 minutes preincubation, 120 minutes with tritiated compound 1 at 37° C.
Protocol: Assay mixtures contained 10 μM isolated tubulin in 1.0 M sodium glutamate, pH 6.6 containing 1 mM MgCl2, and 2.5 μDMSO (control) or 2.5 μl of test compound dissolved in DMSO in 0.5 ml polypropylene tubes. Mixtures were incubated at 37° C. for 30 minutes, then 2.5 μl of a 640 μM solution of tritium-labeled compound 1 in DMSO was added. After further incubation at 37° C. for 120 minutes, aliquots (80 μl) of the assay mixtures were applied to 2.3 cm diameter Whatman 3MM filter paper disks, which were dried for 15 seconds under warm air, immersed in 3 ml of ice-cold 10% trichloroacetic acid, and left overnight at 4° C. Disks were transferred to 5% trichloroacetic acid for 30 minutes, washed twice more in 5% trichloroacetic acid, washed for 30 minutes at 37° C. in ethanol/ether (1:1, v/v), then for 15 min at room temperature in ethanol/ether (1:1, v/v), and finally in two successive washes for 15 minutes each in ether at room temperature. The disks were dried, transferred to scintillation vials containing 10 ml of Hydrofluor™ and counted in a scintillation counter.

[1] = system: tubulin in colon cancer cell line HCT-116; assay: Whole cell binding assay, tritiated S-enantiomer of compound 2 as probe, colon cancer cell line HCT-116; conditions: for Binding of radioligand (% control): HCT-116, 1 hour preincubation, 1 hour with radioligand; for Effect on binding of the radioligand (in words): HCT-116, tritiated S-enantiomer of compound 2
Protocol: Effect of antitubulin compounds on binding of the tritiated S-enantiomer of compound 2 to tubulin in a whole cell binding assay using the colon cancer cell line HCT-116 is shown by this example.
The colon cancer cell line HCT-116 (obtained from the American Type Culture Collection) was cultured in 75 cm^2 flasks containing McCoy's 5a Modified Medium with 10% heat-inactivated fetal bovine serum, 50 U/ml of penicillin G and 50 U/ml of streptomycin sulfate. A cell suspension was prepared by trypsinization of the culture, and adjusted to a density of 10^6 cells/ml by dilution into incomplete medium (medium lacking serum, penicillin G and streptomycin). Aliquots (150 μl) of cell suspension were added to wells of 96-well glass fiber filter plates (Millipore Multiscreen® plates, 1 μm glass fiber, Type B). Wells then received 30 μl of a solution of the test antitubulin compound in incomplete medium/DMSO mixture (8.5:1, v/v) or 30 μl of the incomplete medium/DMSO mixture alone (control). After mixing, the plates were incubated at 37° C. for 1 hour, then 25 μl of 0.8 μM tritium-labeled S-enantiomer of compound 2 was added to each well. After mixing, the plates were incubated at 37° C. for 1 hour, then binding of the radioligand to tubulin was stopped by adding 50 μl of 100 μM unlabeled compound 2. The fluid was removed from the plate by vacuum filtration through the glass fiber, then 100 μl of ice-cold 10% trichloroacetic acid was added to each well. The plates were incubated for 1 h at 4° C., then the fluid was removed by filtration. Ice-cold ethanol (250 μl) was added to each well, the plates incubated for 1 h at 4° C., then the ethanol was removed by filtration. Wells were washed 4 more times with 250 μl of ice-cold ethanol. After drying the plates at 37° C. for 20 min, the glass fiber filters were punched out of the wells into scintillation vials, 5 ml of scintillation fluid was added to each vial, and the samples were counted in a scintillation counter to determine the amount of bound radioactivity. The effects of different antitubulin compounds on binding of the radioligand are presented in Table 11 with the amounts of radioligand bound in the presence of each antitubulin compound expressed as a percentage of the amount of radioligand bound in the control.

tubulin = assay: Binding of S versus R enantiomers to tubulin; conditions: S enantiomer versus corresponding R enantiomer
plant tubulin = conditions: cited from earlier work
brain tubulin = conditions: cited from earlier work

Row | Compound | Binding (% control) (isolated bovine tubulin) | Binding of radioligand (% control) ([1]; 0.1 μM) | Binding of radioligand (% control) ([1]; 1 μM) | Binding of radioligand (% control) ([1]; 10 μM) | Binding of radioligand (% control) ([1]; 100 μM) | Effect on binding of the radioligand (in words) [1] | melting point [°C] | Binding of the S enantiomer to tubulin compared with the R enantiomer (tubulin) | Inhibition of plant tubulin polymerization (plant tubulin) | Inhibition of brain tubulin polymerization (brain tubulin)
1 | CC[C@]1(O)C[C@@H]2CN(CCc3c([nH]c4ccccc34)[C@@](C(=O)OC)(c3cc4c(cc3OC)N(C)[C@H]3[C@@](O)(C(=O)OC)[C@H](OC(C)=O)[C@]5(CC)C=CCN6CC[C@]43[C@@H]65)C2)C1 [Vinblastine, vinblastine] | 90.7 | 155 | 218 | 286 | 323 | increased binding of the radioligand | – | – | – | –
2 | CCC(C)(NC(=O)c1cc(Cl)c(N)c(C=NOC)c1)C(=O)CCl (stereo not shown) [Compound 2, 4-amino-3-chloro-5-methoxyiminomethyl-N-(3-chloro-1-ethyl-1-methyl-2-oxopropyl)benzamide] | – | – | – | – | – | – | 140 to 141 | bind more effectively to tubulin | – | –
3 | COC(=O)Nc1nc2ccc(C(=O)c3cccs3)cc2[nH]1 [Nocodazole, nocodazole] | 31.3 | 102 | 99 | 74 | 44 | reduced binding of the radioligand | – | – | – | –
4 | COP(=S)(NC(C)C)Oc1ccc(C)cc1[N+](=O)[O-] (stereo not shown) [amiprophosmethyl] | – | – | – | – | – | – | – | – | inhibit the polymerization of plant tubulin | not brain tubulin
5 | COc1cc([C@@H]2c3cc4c(cc3[C@H](O)[C@H]3COC(=O)[C@H]23)OCO4)cc(OC)c1OC [Podophyllotoxin, podophyllotoxin] | 21.7 | 37 | 0 | 0 | 0 | reduced binding of the radioligand | – | – | – | –
